PubChem BioAssay AID504539 (Broad Institute, 2011)

system: Cell-based prion protein 5' UTR reporter, plate reader; assay: prion protein 5' UTR mRNA inhibitors – cell-based, plate reader, cherry-picked samples, dose response (AID 504539)

Row | Compound | AC50 [nM]
1 | c1ccc(-c2ccc(-c3nc(-c4ccccn4)no3)cc2)cc1 | 224
2 | COc1cccc2c1C(=O)c1c(O)c3c(c(O)c1C2=O)CC(O)(C(C)=O)CC3OC1CC(N(C)C)C(O)C(C)O1 (configuration not stated) | 165
3 | C=CCn1c(SCc2c(C)noc2C)nc2ccccc2c1=O | 851
4 | COC(=O)Cc1[nH]n(-c2nc3ccccc3s2)c(=O)c1C(C)=Nc1ccc(OC)cc1 | 108
5 | CCOc1ccccc1C1C2=C(COC2=O)Nc2cc3c(cc21)OCO3 (configuration not stated) | 1050
6 | COCCn1c(C)cc(C(=O)CSc2nnc(C)s2)c1C | 696
7 | COc1ccc(OC)c(NS(=O)(=O)c2ccc(N3CCCC3=O)cc2)c1 | 880
8 | Cc1nc(SCC(=O)Nc2nccs2)c(C#N)c(C)c1C | 991
9 | C=C1CC(Cn2cc(Br)c(=O)[nH]c2=O)(c2ccc(-c3ccccc3)cc2)OC1=O (configuration not stated) | 1160
10 | C=C1C(=O)O[C@@H]2C[C@@H](C)[C@@H]3C=CC(=O)[C@@]3(C)[C@@H](OC(=O)CC(=O)O[C@H]3[C@@H]4C(=C)C(=O)O[C@@H]4C[C@@H](C)[C@@H]4C=CC(=O)[C@]43C)[C@H]12 | 633
11 | COc1cc(OC)cc(-c2cc3nc(C)c(CCC(=O)O)c(C)n3n2)c1 | 1610
12 | COC(=O)Cc1[nH]n(-c2nc3ccccc3s2)c(=O)c1C(C)=Nc1ccc(C)cc1 | 401
13 | Clc1ccc2nc(-c3ccccc3)nc(C(Cl)Cl)c2c1 | 885
14 | CC12CCC(O)CC1CCC1C2CCC2(C)C(C3=CC(=O)OC3)CCC12O (configuration not stated) | 230
15 | Cc1ccc(-c2cn3cc(C)ccc3n2)cc1 | 113
16 | O=C(c1ccc(Cl)cc1)N1CCCCC(Sc2nnc(-c3ccc4c(c3)OCO4)o2)C1=O (configuration not stated) | 419
17 | Cc1ccc(OCC(=O)c2cc(C)n(-c3ccccc3)c2C)c([N+](=O)[O-])n1 | 3270
18 | COc1ccc(-c2nc(-c3ccccn3)no2)cc1 | 209
19 | COc1ccc(C(=O)Nc2nc3ccccc3s2)c(OC)c1 | < 38
20 | COc1ccccc1C(=O)Nc1nc2ccccc2s1 | 204
21 | CCOC(=O)C(C)Oc1cccc2c(=O)n(CC(=O)NCc3ccc(F)cc3)ccc12 (configuration not stated) | 486
22 | COc1cc(C2c3cc4c(cc3CC3COC(=O)N32)OCO4)cc(OC)c1OC (configuration not stated) | 861
23 | Cc1ccc(C(=O)n2c(N)nc3ccccc32)cc1 | 493
24 | CN(C)c1ccc(NC(=S)c2ccccn2)cc1 | 222
25 | COc1ccc(OC)c(C2C3=C(COC3=O)Nc3cc4c(cc32)OCO4)c1 (configuration not stated) | 197
26 | CCc1ccc(-c2cc(C(=O)Nn3cnnc3)c3ccccc3n2)cc1 | 510

Row | Compound | AC50 [nM]
27 | CC(=O)CSc1ccc(-c2nc3cc(C)c(C)cc3[nH]2)cn1 | 434
28 | Cc1cc(C(=O)CN2C(=O)c3ccccc3S2(=O)=O)c(C)n1CC1CCCO1 (configuration not stated) | 271
29 | O=c1cc(-c2ccc(O)cc2)oc2ccc3ccccc3c12 | 629
30 | COc1cc2c(c(OC)c1OC)-c1ccc(O)c(=O)cc1C(NC(C)=O)CC2 (configuration not stated) | 160
31 | Nc1ncnc2c1ccn2[C@@H]1O[C@H](CO)[C@@H](O)[C@H]1O | 164
32 | CCCN1C=CC(=C2C(=O)c3ccccc3C2=O)C=C1 | 169
33 | CC12CCC3C(CCC4(O)CC(O)CCC34C=NO)C1(O)CCC2C1=COC(=O)C1 (configuration not stated) | 160
34 | CCN1/C(=C\C=C\C2=[N+](CC)c3ccccc3C2(C)C)C(C)(C)c2ccccc21 | 924
35 | CC1=CC2OC3CC4OC(=O)C=CC=CC(=O)OCCC(C)C(O)C(=O)OCC2(CC1O)C4(C)C31CO1 (configuration not stated) | < 38
36 | Cc1cc(C)c(S(=O)(=O)Nc2ccc3c4c(cccc24)CC3)c(C)c1 | 1900
37 | O=C(/C=C\Nc1ccc2c(c1)OCO2)c1ccccn1 | 173
38 | CCCOc1ccc2cc(-c3ccccn3)c(=O)oc2c1 | 399
39 | CCOc1ccc(C(=O)O/N=C(\N)c2ccccn2)cc1 | 134
40 | CCC(C)C1NC(=O)C(NC(=O)C(CC(C)C)N(C)C(=O)C2CCCN2C(=O)C(C)O)C(C)OC(=O)C(Cc2ccc(OC)cc2)N(C)C(=O)C2CCCN2C(=O)C(CC(C)C)NC(=O)[C@H](C)C(=O)[C@H](C(C)C)OC(=O)CC1O (some centres not stated) | 84
41 | CC(=O)OC1CC2(O)C3CCC4CC(O)CCC4(C)C3CCC2(C)C1C1=CC(=O)OC1 (configuration not stated) | 92
42 | O=C(NC1=NCCS1)C1COc2ccccc2O1 (configuration not stated) | 296
43 | COc1cc(C(=O)N2CCN(c3ccccc3)CC2)c2ccccc2n1 | 574
44 | Cc1cc(C(=O)COC(=O)c2ccccc2O)c(C)n1Cc1cccs1 | 83
45 | Cc1nn(C(C)(C)C)c(C)c1/C=N/OC(=O)Nc1ccc(Cl)cc1 | < 38
46 | CC1=Nc2cc(C(=O)NCc3ccco3)ccc2Sc2ccc(C)cc21 | 1670
47 | C=C1C(=O)O[C@@H]2C[C@@H](C)[C@@H]3C=CC(=O)[C@@]3(C)[C@@H](O)[C@H]12 | 1580
48 | CC1=C(C(=O)Nc2ccc(CC(=O)NCc3ccc(OC(C)C)cc3)cc2)SCCO1 | 974
49 | NC(=S)NN=Cc1nccc2ccccc12 | 2800
50 | COc1cc(/C=C2\COC/C(=C\c3cc(OC)c(OC)c(OC)c3)C2=O)cc(OC)c1OC | 788
51 | Fc1ccc(-c2nnc(NC3=NCCCCC3)o2)cc1 | 372
52 | CCCS(=O)(=O)c1cnc(C2COc3ccccc3O2)nc1N (configuration not stated) | 487
